One assay relates to Staphylococcus aureus. In words: Efficacy in Staph. aureus infection of the mouse. The class given is in vivo, Maus. Particulars: mouse infected with Staphylococcus aureus.
In another assay the test system is Bact. thetaiotaomicron. In words: MIC, agar dilution test (Multipoint-Inokulator Denley, Isosensitest-Agar). The class given is cell-based. Particulars: Bacteroides thetaiotaomicron, DSM2079, Stamm DSM 2079, read-out: MHK-Werte. A general note: Agar dilution tests growth on a series of plates holding different concentrations.
Another assay concerns Bacteroides fragilis. The assay is described as above. The assay is classed as cell-based.
The next assay has as its system Clostridium perfringens. Put plainly: microbe, parasite or virus in culture. The class given is cell-based. Particulars: read-out: MHK-Werte.
[1] abbreviates: DSM2151, Stamm DSM 2151, Isosensitest-Agar, read-out: MHK-Werte.
[2] abbreviates: Stamm ES 25, Isosensitest-Agar, read-out: MHK-Werte.

In brackets after ≈: the same amount, converted by molar mass. Like-named read-outs stand apart in the source and are kept apart here.

For `COC(=O)C=C(C(=O)OC)N1CCC[C@H]2CN(c3c(F)cc4c(=O)c(C(=O)O)cn(C5CC5)c4c3Cl)C[C@H]21` [Beispiel 35, 8-Chlor-1-cyclopropyl-7-[2-(1,2-bis-methoxycarbonyl-vinyl)-1S,6S-2,8-diazabicyclo[4.3.0]non-8-yl]-6-fluor-1,4-dihydro-4-oxo-3-chinolincarbonsäure], the “Wirksamkeit in der Staph. aureus-Infektion an der Maus” value (from here on “Wirksamkeit”) in the assay on Staphylococcus aureus (p.o.) and in the assay with Staphylococcus aureus (s.c.) was 2,5 mg/kg in each case.
On to `O=C(O)c1cn(C2CC2)c2c(Cl)c(N3C[C@@H]4CCCN[C@@H]4C3)c(F)cc2c1=O` [A, 8-Chlor-1-cyclopropyl-7-([S,S]-2,8-diazabicyclo[4.3.0]non-8-yl)-6-fluor-1,4-dihydro-4-oxo-3-chinolincarbonsäure], for which the MIC was 0.5 mg/L (≈ 1.23 µM) in the assay on Bact. thetaiotaomicron, 0.25 mg/L (≈ 0.616 µM) with Bacteroides fragilis (setting [1]) and 0.25 mg/L (≈ 0.616 µM) in the assay on Bacteroides fragilis (setting [2]).
Regarding `CC(=O)CCN1CCC[C@H]2CN(c3c(F)cc4c(=O)c(C(=O)O)cn(C5CC5)c4c3F)C[C@H]21` [Beispiel 27, 1-Cyclopropyl-6,8-difluor-1,4-dihydro-4-oxo-7-([S,S]-2-[3-oxo-1-butyl]-2,8-diazabicyclo[4.3.0]non-8-yl)-3-chinolincarbonsäure], the “Wirksamkeit” value with Staphylococcus aureus (p.o.) is listed as 10 mg/kg; in the assay on Staphylococcus aureus (s.c.) it was 2,5 mg/kg.
The corresponding values for `CC(=O)CCN1CCC[C@H]2CN(c3c(F)cc4c(=O)c(C(=O)O)cn(C5CC5)c4c3Cl)C[C@H]21` [Beispiel 29A, 8-Chlor-1-cyclopropyl-6-fluor-1,4-dihydro-4-oxo-7-([S,S]-2-[3-oxo-1-butyl]-2,8-diazabicyclo[4.3.0]non-8-yl)-3-chinolincarbonsäure] are 5 mg/kg and 5 mg/kg.
Turning to `CN1CCC2CN(c3c(F)cc4c(=O)c(C(=O)O)cn(C5CC5)c4c3Cl)CC21` (stereo not shown) [B], the MIC in the assay with Bact. thetaiotaomicron was determined as 2 mg/L (≈ 4.93 µM); with Clostridium perfringens it was 0.5 mg/L (≈ 1.23 µM); with Bacteroides fragilis (setting [1]), 0.5 mg/L (≈ 1.23 µM); in the assay on Bacteroides fragilis (setting [2]) it was 1 mg/L (≈ 2.46 µM).
With `N#CCCN1CCC[C@H]2CN(c3c(F)cc4c(=O)c(C(=O)O)cn(C5CC5)c4c3Cl)C[C@H]21` [Beispiel 33, 8-Chlor-7-([S,S]-2-[2-cyanoethyl]-2,8-diazabicyclo[4.3.0]non-8-yl)-1-cyclopropyl-6-fluor-1,4-dihydro-4-oxo-3-chinolincarbonsäure], the “Wirksamkeit” value in the assay on Staphylococcus aureus (p.o.) is 10 mg/kg; in the assay with Staphylococcus aureus (s.c.) it was 5 mg/kg.
`O=C(O)c1cn(C2CC2)c2cc(N3CCNCC3)c(F)cc2c1=O` [Ciprofloxacin]: the MIC was 8 mg/L (≈ 24.1 µM) in the assay on Bact. thetaiotaomicron; 4 mg/L (≈ 12.1 µM) with Bacteroides fragilis (DSM2151, read-out: MHK-Werte); 8 mg/L (≈ 24.1 µM) with Bacteroides fragilis (read-out: MHK-Werte). The “Wirksamkeit” value with Staphylococcus aureus (p.o.) and with Staphylococcus aureus (s.c.) was 80 mg/kg throughout.
Regarding `CC(=O)CCN1CCO[C@H]2CN(c3c(F)cc4c(=O)c(C(=O)O)cn(C5CC5)c4c3F)C[C@H]21` (racemic) [Beispiel 31, 1-Cyclopropyl-6,8-difluor-1,4-dihydro-4-oxo-7-(cis-5-[3-oxo-1-butyl]-2-oxa-5,8-diazabicyclo[4.3.0]non-8-yl)-3-chinolincarbonsäure], the “Wirksamkeit” value in the assay with Staphylococcus aureus (p.o.) and in the assay on Staphylococcus aureus (s.c.) was 10 mg/kg in each case.

The record behind these values is patent EP0550903A1, “Quinolone- and naphthyridone carboxylic acid derivatives as antibacterial agents” (BAYER AG, priority 1992, dated 1993).
